Measured values reported in US20210155905A1, “Method for Obtaining Haploid Cells” (Centre National de la Recherche Scientifique (CNRS), priority 2017, published 2021).
Entries after “also recorded” stand apart in the source; their conditions may differ.

Assays:
[1] = test system: 3T3 cells; test: Western blotting of cleaved caspase 3 (apoptosis); format: cell-based, mouse; conditions: synchronized cells, hydroxyurea for 20 hours
Procedure: (§1) FIG. 31 represents FACS profiles showing the DNA content (propidium iodide staining) of 3T3 cells 20 hours after release from G0 in the presence (+ΔDboxGem) or not (−ΔDboxGem) of doxycycline alone (CTRL—first column) or combined with RO-3306 treatment (a CDK1 inhibitor that prevents mitotic entry second column) or after UV treatment (performed upon release to induce DNA damage; third column).
FIG. 32 is a control western blot used as control of the experiment of FIG. 31. […] A: next G1, B: HU and C: U.V. C3*: cleaved caspase 3 and H3: histone H3.
(§2) To express CDT1, 3T3 cells were transfected with 5 μg of plasmid pCDNA3-CDT1 or empty vector using Nucleofector TN II; Amaxa Biosystem; AAD-1001N. To induce DNA damage, synchronized cells were exposed to UV (0.002 joules) using the Bioblock Scientific BLX-254 upon release or incubated with 2 mM hydroxyurea for 20 hours. To block mitotic progression, 9 μM RO-3306 was added in the medium upon G0/G1 release.
To prepare total cell extracts, cells were harvested, washed twice with PBS, lysed in 2× Laemmli buffer, sonicated (3×30 seconds) and boiled for 5 min. To obtain chromatin-enriched fractions, a protocol adapted from Lutzmann et al. [Lutzmann et al. 2012 Molecular Cell, 47, 523-534] was used. […]

[2] = test system: 3T3 cells; test: FACS DNA content: appearance of the 1C (sub-G1) cell population 20 hours after release from G0; format: cell-based, mouse; conditions: ΔDboxGeminin-expressing cells, 9 μM RO-3306 upon G0/G1 release
Procedure: as §1
For PI, BrdU/PI and ^ser10PH3/PI experiments, cells were fixed in cold 70% Ethanol/PBS and then processed for indirect immunofluorescence, as described above. To detect cyclin B1/PI, MPM2/PI and FLAG/PI, cells were fixed in 3% PFA in PBS at RT for 15 min, permeabilized in 0.5% Triton X-100 for 5 min and processed for indirect immunofluorescence. For DNA staining, cells were treated with 50 μg·mL^−1 RNase A (Sigma, R6513) and stained with 25 μg·mL^−1 propidium iodide.
as §2

SMILES	apoptosis (cleaved caspase 3) [1]	appearance of the 1C DNA content cell population [2]
NC(=O)NO [hydroxyurea]	did not induce detectable apoptosis	–
O=C1NC(=NCc2cccs2)S/C1=C\c1ccc2ncccc2c1 [RO-3306]	–	prevented mitotic entry and the appearance of the 10 DNA cell population; also recorded: totally prevented their appearance
